29 compounds from article PMC2248166, “Quantitative peptide binding motifs for 19 human and mouse MHC class I molecules derived using positional scanning combinatorial peptide libraries” (Immunome Research, 2008) can be followed below.

Structures are written as SMILES. Where a SMILES comes first, the peptide text is derived from it.

The IC50 is the point on the concentration scale where inhibition reaches its midpoint.

For this assay, the target named is HLA B*0801 (Homo sapiens, UniProt P01889, A93T/A95T/D138N/E176V/E187T/K202T/Q94N/R180D/S35A/V36M/Y33D/Y91F). In words: biochemical. The format is binding.

Consider `CC[C@H](C)[C@H](NC(=O)[C@H](CCCCN)NC(=O)[C@H](CC(C)C)NC(=O)[C@@H](N)Cc1ccccc1)C(=O)N[C@@H](CCCCN)C(=O)N[C@H](C(=O)N[C@H](C(=O)N[C@@H](C)C(=O)N[C@@H](C)C(=O)O)[C@@H](C)O)C(C)C` [3102.0685] (H-FLKIKVTAA-OH), for which the IC50 came to 15 nM.
For `CC(C)C[C@H](NC(=O)[C@@H](N)Cc1ccc(O)cc1)C(=O)N[C@@H](CCCNC(=N)N)C(=O)N[C@H](C(=O)N[C@@H](CCCCN)C(=O)N1CCC[C@H]1C(=O)N[C@@H](C)C(=O)N[C@@H](CO)C(=O)N[C@@H](C)C(=O)O)[C@@H](C)O` [3102.0686] (H-YLRTKPASA-OH) the value was 1.5 nM; for `CC[C@H](C)[C@H](NC(=O)[C@@H]1CCCN1C(=O)[C@H](CCCNC(=N)N)NC(=O)[C@H](Cc1c[nH]cn1)NC(=O)[C@H](CCCNC(=N)N)NC(=O)[C@H](CCCCN)NC(=O)[C@H](CC(N)=O)NC(=O)[C@@H](N)CO)C(=O)NCC(=O)O` [3102.0687] (H-SNKRHRPIG-OH), 34 nM; for `CC[C@H](C)[C@H](NC(=O)[C@H](Cc1c[nH]cn1)NC(=O)[C@H](Cc1ccccc1)NC(=O)[C@H](CCCNC(=N)N)NC(=O)[C@@H](NC(=O)[C@@H](N)CO)[C@@H](C)CC)C(=O)N[C@@H](CCCCN)C(=O)N[C@@H](CCC(=O)O)C(=O)N[C@@H](CC(C)C)C(=O)O` [3102.0695] (H-SIRFHIKEL-OH), 0.45 nM.
For `CC(C)C[C@H](NC(=O)[C@H](CO)NC(=O)CNC(=O)[C@H](Cc1ccccc1)NC(=O)[C@@H](NC(=O)[C@H](CCC(N)=O)NC(=O)[C@H](CCCCN)NC(=O)[C@H](Cc1ccccc1)NC(=O)[C@@H](N)Cc1ccccc1)[C@@H](C)O)C(=O)O` [3102.0697] (H-FFKQTFGSL-OH) the value was 0.74 nM; for `CSCC[C@H](NC(=O)[C@H](CCC(N)=O)NC(=O)[C@H](CCCCN)NC(=O)[C@@H](NC(=O)[C@H](CCC(N)=O)NC(=O)[C@@H]1CCCN1C(=O)[C@@H](N)CC(N)=O)[C@@H](C)O)C(=O)N[C@@H](C)C(=O)N[C@@H](Cc1ccccc1)C(=O)O` [3102.0698] (H-NPQTKQMAF-OH), 14 nM; for `CC[C@H](C)[C@H](NC(=O)[C@@H](NC(=O)[C@H](Cc1ccccc1)NC(=O)[C@H](CCCCN)NC(=O)[C@H](CCC(N)=O)NC(=O)[C@H](CCSC)NC(=O)[C@H](CC(=O)O)NC(=O)[C@@H](N)CO)[C@@H](C)O)C(=O)N[C@@H](CC(C)C)C(=O)O` [3102.0699] (H-SDMQKFTIL-OH), 41 nM.
As for `CC(C)C[C@H](NC(=O)[C@@H](N)CC(N)=O)C(=O)N[C@@H](CCCNC(=N)N)C(=O)N[C@@H](CS)C(=O)N[C@@H](Cc1c[nH]cn1)C(=O)N[C@@H](CO)C(=O)N[C@@H](C)C(=O)N[C@@H](Cc1c[nH]cn1)C(=O)N[C@H](C(=O)O)C(C)C` [3102.0700] (H-NLRCHSAHV-OH), the figure is 1.2 nM; as for `CC[C@H](C)[C@H](NC(=O)[C@H](CC(C)C)NC(=O)[C@H](CCSC)NC(=O)[C@H](CCCNC(=N)N)NC(=O)[C@@H](NC(=O)[C@H](Cc1ccccc1)NC(=O)[C@@H](NC(=O)[C@@H](N)CO)[C@@H](C)CC)[C@@H](C)CC)C(=O)N[C@@H](CC(C)C)C(=O)O` [3102.0701] (H-SIFIRMLIL-OH), 10 nM.
As to `CC[C@H](C)[C@H](NC(=O)[C@H](CC(C)C)NC(=O)[C@@H](N)CCSC)C(=O)N[C@@H](CC(C)C)C(=O)N[C@@H](CC(N)=O)C(=O)N[C@@H](Cc1ccccc1)C(=O)N[C@@H](CS)C(=O)N[C@@H](CCCCN)C(=O)N[C@@H](CC(C)C)C(=O)O` [3102.0702] (H-MLILNFCKL-OH), half-maximal inhibition (IC50) was put at 3.9 nM. This IC50 is about 2.6-fold lower than that of the compound before.
As for `CSCC[C@H](NC(=O)[C@@H]1CCCN1C(=O)[C@@H](N)CC(C)C)C(=O)N[C@@H](CC(C)C)C(=O)N[C@@H](Cc1ccc(O)cc1)C(=O)N[C@@H](Cc1ccccc1)C(=O)N[C@@H](CC(C)C)C(=O)N[C@@H](Cc1ccc(O)cc1)C(=O)N[C@H](C(=O)O)C(C)C` [3102.0703] (H-LPMLYFLYV-OH), the figure is 2.5 nM; as for `CC[C@H](C)[C@H](NC(=O)[C@@H](NC(=O)[C@H](CCC(N)=O)NC(=O)[C@H](CCCNC(=N)N)NC(=O)[C@H](CCCCN)NC(=O)[C@H](Cc1ccccc1)NC(=O)[C@H](CO)NC(=O)[C@@H]1CCCN1C(=O)[C@@H](N)CC(N)=O)[C@@H](C)CC)C(=O)O` [3102.0704] (H-NPSFKRQII-OH), 20 nM.
As to `CC[C@H](C)[C@H](NC(=O)[C@H](CC(=O)O)NC(=O)[C@H](CC(C)C)NC(=O)[C@H](CCCCN)NC(=O)[C@H](CCCCN)NC(=O)[C@H](CCCNC(=N)N)NC(=O)[C@H](CCCCN)NC(=O)[C@@H](NC(=O)[C@@H](N)Cc1ccccc1)C(C)C)C(=O)O` [3102.0707] (H-FVKRKKLDI-OH), the IC50 worked out at 3 nM. Against the preceding compound, the IC50 is about 6.7-fold lower.
For `CC[C@H](C)[C@H](NC(=O)[C@H](CCCNC(=N)N)NC(=O)[C@@H](N)Cc1ccc(O)cc1)C(=O)N[C@@H](C)C(=O)N[C@@H](CCCCN)C(=O)N[C@@H](Cc1ccccc1)C(=O)N[C@@H](CC(C)C)C(=O)N[C@@H](Cc1ccccc1)C(=O)N[C@@H](CCSC)C(=O)O` [3102.0708] (H-YRIAKFLFM-OH) the value was 17 nM.
For `CC[C@H](C)[C@H](NC(=O)[C@H](CCCCN)NC(=O)[C@@H](NC(=O)[C@H](CCCNC(=N)N)NC(=O)[C@H](CC(C)C)NC(=O)[C@@H](N)C(C)C)[C@@H](C)O)C(=O)N[C@H](C(=O)N[C@@H](CO)C(=O)N[C@@H](CC(C)C)C(=O)O)[C@@H](C)O` [3102.0709] (H-VLRTKITSL-OH) the value was 0.92 nM.
As for `CC(C)C[C@H](NC(=O)[C@@H](NC(=O)[C@H](CCCNC(=N)N)NC(=O)[C@H](Cc1ccccc1)NC(=O)[C@H](CCCCN)NC(=O)[C@H](CO)NC(=O)[C@H](CC(C)C)NC(=O)[C@H](CCC(N)=O)NC(=O)[C@@H](N)CC(=O)O)[C@@H](C)O)C(=O)O` [3102.0710] (H-DQLSKFRTL-OH), the figure is 7.4 nM; as for `CC[C@H](C)[C@H](NC(=O)[C@H](CC(=O)O)NC(=O)[C@H](CC(C)C)NC(=O)[C@@H]1CCCN1C(=O)[C@H](CCCCN)NC(=O)[C@H](CC(C)C)NC(=O)[C@H](CCCNC(=N)N)NC(=O)[C@H](C)NC(=O)[C@@H](N)CC(N)=O)C(=O)O` [3102.0711] (H-NARLKPLDI-OH), 0.81 nM; as for `CC(C)C[C@H](NC(=O)[C@@H](N)CCC(=O)O)C(=O)N[C@@H](CCCCN)C(=O)N[C@@H](CCC(=O)O)C(=O)N[C@@H](CCCCN)C(=O)N[C@@H](CO)C(=O)N[C@H](C(=O)N[C@@H](CCCCN)C(=O)N[C@@H](Cc1ccccc1)C(=O)O)C(C)C` [3102.0712] (H-ELKEKSVKF-OH), 3.2 nM.
`CC[C@H](C)[C@H](NC(=O)[C@H](CO)NC(=O)[C@H](CCSC)NC(=O)[C@H](CC(C)C)NC(=O)[C@H](CCCNC(=N)N)NC(=O)[C@H](CC(N)=O)NC(=O)[C@H](CO)NC(=O)[C@H](CC(N)=O)NC(=O)[C@@H](N)CO)C(=O)O` [3102.0713] (H-SNSNRLMSI-OH) yielded an IC50 of 10 nM.
For `CSCC[C@H](NC(=O)[C@H](Cc1ccccc1)NC(=O)[C@@H](N)CC(C)C)C(=O)N[C@@H](CO)C(=O)N[C@@H](Cc1c[nH]cn1)C(=O)N[C@H](C(=O)N[C@@H](CCCCN)C(=O)N[C@@H](CO)C(=O)N[C@H](C(=O)O)C(C)C)C(C)C` [3102.0716] (H-LFMSHVKSV-OH) the value was 3.1 nM.
As for `CC[C@H](C)[C@H](NC(=O)[C@H](C)NC(=O)[C@H](CO)NC(=O)[C@H](Cc1ccccc1)NC(=O)[C@H](CCCCN)NC(=O)[C@H](CCCCN)NC(=O)[C@H](CO)NC(=O)[C@@H](NC(=O)[C@@H](N)CC(N)=O)[C@@H](C)CC)C(=O)O` [3102.0717] (H-NISKKFSAI-OH), the figure is 2.8 nM; as for `CSCC[C@H](N)C(=O)N[C@@H](Cc1ccccc1)C(=O)NCC(=O)N[C@H](C(=O)N[C@@H](CCCNC(=N)N)C(=O)N[C@@H](CCCCN)C(=O)N[C@@H](CC(N)=O)C(=O)N[C@@H](CO)C(=O)N[C@@H](Cc1ccccc1)C(=O)O)[C@@H](C)O` [3102.0718] (H-MFGTRKNSF-OH), 2 nM.
For `CC[C@H](C)[C@H](NC(=O)[C@H](CCCCN)NC(=O)[C@@H]1CCCN1C(=O)[C@@H](N)CCC(=O)O)C(=O)N[C@@H](CO)C(=O)N[C@@H](CC(C)C)C(=O)N[C@@H](CC(C)C)C(=O)N1CCC[C@H]1C(=O)N[C@@H](CC(C)C)C(=O)O` [3102.0719] (H-EPKISLLPL-OH) the value was 8.5 nM; for `CC[C@H](C)[C@H](NC(=O)[C@H](CC(N)=O)NC(=O)[C@H](CC(C)C)NC(=O)[C@H](CCCCN)NC(=O)[C@H](CC(N)=O)NC(=O)[C@H](CCSC)NC(=O)[C@@H](NC(=O)[C@@H](N)CC(N)=O)[C@@H](C)CC)C(=O)N[C@H](C(=O)O)C(C)C` [3102.0721] (H-NIMNKLNIV-OH), 5.7 nM.
`CC(C)C[C@H](NC(=O)[C@H](CCCNC(=N)N)NC(=O)[C@H](C)NC(=O)[C@H](CC(N)=O)NC(=O)[C@H](CCCNC(=N)N)NC(=O)[C@H](C)NC(=O)CNC(=O)[C@@H]1CCCN1C(=O)[C@@H](N)CC(N)=O)C(=O)O` [3102.0722] (H-NPGARNARL-OH) had an IC50 of 6.2 nM.
For `CC[C@H](C)[C@H](NC(=O)[C@H](CCC(=O)O)NC(=O)[C@H](CCSC)NC(=O)[C@H](CCCNC(=N)N)NC(=O)[C@@H](N)CC(N)=O)C(=O)N[C@@H](Cc1ccccc1)C(=O)N[C@@H](CC(C)C)C(=O)N[C@H](C(=O)N[C@@H](CC(C)C)C(=O)O)C(C)C` [3102.0723] (H-NRMEIFLVL-OH) the value was 4.9 nM.
For `CSCC[C@H](NC(=O)[C@H](CC(C)C)NC(=O)[C@@H](N)CCSC)C(=O)N[C@@H](CCC(=O)O)C(=O)N[C@H](C(=O)N[C@@H](Cc1ccccc1)C(=O)N1CCC[C@H]1C(=O)N[C@@H](CCC(N)=O)C(=O)N[C@@H](CC(C)C)C(=O)O)C(C)C` [3102.0725] (H-MLMEVFPQL-OH) the value was 13 nM; for `CC[C@H](C)[C@H](NC(=O)[C@H](CC(C)C)NC(=O)[C@H](Cc1c[nH]cn1)NC(=O)[C@H](CCCCN)NC(=O)[C@H](Cc1ccc(O)cc1)NC(=O)[C@@H](NC(=O)[C@@H]1CCCN1C(=O)[C@@H](N)CCSC)[C@@H](C)O)C(=O)N[C@@H](CCSC)C(=O)O` [3102.0727] (H-MPTYKHLIM-OH), 0.13 nM.
For `CSCC[C@H](NC(=O)[C@H](Cc1ccccc1)NC(=O)CN)C(=O)N[C@@H](CCCNC(=N)N)C(=O)N[C@@H](Cc1ccccc1)C(=O)N[C@@H](Cc1ccccc1)C(=O)N[C@@H](CCC(N)=O)C(=O)N[C@@H](CC(C)C)C(=O)N[C@@H](CC(C)C)C(=O)O` [3102.0728] (H-GFMRFFQLL-OH) the value was 2.4 nM.
